Three compounds from ChEMBL document CHEMBL4000201, “Benzylideneoxymorphone: A new lead for development of bifunctional mu/delta opioid receptor ligands” (Bioorg Med Chem Lett, 2017) can be followed below.

Assay [1] addresses Mu-type opioid receptor (Homo sapiens, UniProt P35372). Nature of the assay: Displacement of [3H]DAMGO from human MOR expressed in CHO cells. Type of assay: cell-based. A general note: In a radioligand displacement assay an active substance lowers the binding of a labelled ligand.
For assay [2], the target named is Delta-type opioid receptor (Homo sapiens, UniProt P41143). Nature of the assay: Displacement of [3H]DPDPE from human DOR expressed in CHO cells. The assay is classed as cell-based.
Sequence of Delta-type opioid receptor (P41143 whole entry): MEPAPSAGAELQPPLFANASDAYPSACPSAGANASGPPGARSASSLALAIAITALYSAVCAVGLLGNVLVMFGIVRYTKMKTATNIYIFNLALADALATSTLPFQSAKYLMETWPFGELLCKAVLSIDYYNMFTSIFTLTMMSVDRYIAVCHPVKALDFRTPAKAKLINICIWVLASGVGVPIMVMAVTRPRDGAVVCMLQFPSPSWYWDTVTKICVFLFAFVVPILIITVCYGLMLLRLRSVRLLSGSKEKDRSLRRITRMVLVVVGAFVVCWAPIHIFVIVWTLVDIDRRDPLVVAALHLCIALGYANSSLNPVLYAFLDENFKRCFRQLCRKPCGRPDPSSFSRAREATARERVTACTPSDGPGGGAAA
For assay [3], the system named is Mus musculus. Nature of the assay: Antinociceptive activity in Swiss-Webster mouse assessed as maximum possible effect at 20 to 60 mg/kg, sc after 30 mins measured every 20 mins for 90 mins by hot plate test. The assay is classed as functional.
In assay [4] the test system is Mus musculus. The assay can be described thus: Antinociceptive activity in Swiss-Webster mouse assessed as time required for peak effect at 60 mg/kg, sc after 30 mins measured every 20 mins for 90 mins by hot plate test. The assay is classed as functional. On the technique in general: Thermal pain tests record how soon the animal reacts.
Assay [5] is described as follows: Displacement of [3H]DPDPE from DOR in guinea pig brain membranes measured after 60 mins by scintillation counting method. Type of assay: cell membranes, Cavia porcellus, Membrane.

Sequence of Mu-type opioid receptor (P35372 whole entry): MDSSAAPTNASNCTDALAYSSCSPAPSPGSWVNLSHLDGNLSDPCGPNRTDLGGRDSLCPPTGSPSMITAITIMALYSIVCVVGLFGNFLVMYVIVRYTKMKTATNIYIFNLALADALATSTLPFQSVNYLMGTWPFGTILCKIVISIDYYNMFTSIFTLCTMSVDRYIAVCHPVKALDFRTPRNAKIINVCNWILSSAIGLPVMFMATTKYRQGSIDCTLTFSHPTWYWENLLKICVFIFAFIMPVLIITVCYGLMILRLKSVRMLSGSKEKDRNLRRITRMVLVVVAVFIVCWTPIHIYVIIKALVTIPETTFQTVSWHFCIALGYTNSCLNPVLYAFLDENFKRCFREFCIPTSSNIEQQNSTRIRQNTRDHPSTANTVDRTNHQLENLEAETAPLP

By Ki is commonly meant a measure of affinity in units of concentration, obtained from inhibition or displacement. Higher therefore signals lower affinity. In the case of `O=C1/C(=C/c2ccccc2)C[C@@]2(O)[C@H]3Cc4ccc(O)c5c4[C@@]2(CCN3CCCc2ccccc2)[C@H]1O5`, the Ki in assay [1] was 313 nM; in assay [2] it was 168 nM.
For the compound `CN1CC[C@]23c4c5ccc(O)c4O[C@H]2C(=O)/C(=C/c2ccccc2)C[C@@]3(O)[C@H]1C5`, the Ki was found to be 17.5 nM in assay [1] and 14.4 nM in assay [2]. In assay [3], the MPE came to 40%. Besides, the Time in assay [4] is 50 min.
Compound `O=C1/C(=C/c2ccccc2)C[C@@]2(O)[C@H]3Cc4ccc(O)c5c4[C@@]2(CCN3CC2CC2)[C@H]1O5` [BNTX] had a Ki in assay [5] of 6.2 nM.
